In patent publication US10561638B2, “Methods for treating dependence” (Biotie Therapies, Inc., priority 2007, dated 2020):
Entries after “also recorded” stand apart in the source; their conditions may differ.

Columns and labels:
[1] = molecular target: α1A adrenoceptors (Homo sapiens, UniProt P35348); assay: Radioligand binding assay
Procedure: (§1) The activity of nepicastat at twelve selected enzymes and receptors was determined using established assays. Binding data were analyzed by iterative curve-fitting to a four parameter logistic equation. Ki values were calculated from IC50 values using the Cheng-Prusoff equation. Enzyme inhibitory activity was expressed as IC50 (concentration required to produce 50% inhibition of enzyme activity).
(§2) The activity of nepicastat at eleven different enzymes was determined using established assays. The affinity of nepicastat for thirteen selected receptors was determined by radioligand binding assays using standard filtration techniques and membrane preparations. Binding data were analyzed by iterative curve fitting to a four parameter logistic equation. Ki values were calculated using the Cheng-Prusoff equation.

[2] = molecular target: α1B adrenoceptors (Homo sapiens, UniProt P35368); assay: Radioligand binding assay
Procedure: as §1, §2

[3] = molecular target: α2A adrenoceptors (Homo sapiens, UniProt P08913); assay: Radioligand binding assay
Procedure: as §1, §2

[4] = molecular target: α2B adrenoceptors (Homo sapiens, UniProt P18089); assay: Radioligand binding assay
Procedure: as §1, §2

[5] = molecular target: β1 adrenoceptors (Homo sapiens, UniProt P08588); assay: Radioligand binding assay
Procedure: as §1, §2

[6] = molecular target: β2 adrenoceptors (Homo sapiens, UniProt P07550); assay: Radioligand binding assay
Procedure: as §1, §2

[7] = molecular target: μ opioid receptors (Homo sapiens, UniProt P35372); assay: Radioligand binding assay
Procedure: as §1, §2

[8] = test system: normal dogs; assay: Cardiovascular effects of i.v. dosing in dogs; format: in vivo; details: anesthetized dogs, 1-10 mg/kg i.v., up to five hours
[9] = test system: MPTP-lesioned squirrel monkey; assay: MPTP-lesioned squirrel monkey Parkinsonian model; format: in vivo, squirrel monkeys
Procedure: Twenty four squirrel monkeys, fourteen females and ten males were used in a Parkinsonian model. The twenty-four animals were randomly assigned to one of four treatment groups, with 6 animals per group. The groups consisted of the following: Group A (6 animals) received placebo (water) treatment; Group B (5 animals) received drug nepicastat at 1 mg/kg/day (0.5 mg/kg twice daily); Group C (6 animals) received 4 mg/kg/day (2 mg/kg twice daily); and Group D (6 animals) received 10 mg/kg/day (5 mg/kg twice daily). In Group B, one animal died acutely following MPTP-lesioning, and was not replaced.
Prior to lesioning, animals were subjected to quantitative assessment of spontaneous motor activity using an infrared activity monitor (IRAM) cage. All recording sessions were 60 minutes in length and were carried out for 10 sessions over a period of 2 weeks. The behavior of animals was also assessed by 1 to 3 clinical raters using a parkinsonian clinical rating scale (CRS) once per day (12 noon to 1 pm) for 3 to 5 consecutive days. […] Both the activity monitoring (IRAM) and clinical rating assessments established the mean base-line activity of each animal.
Animals were lesioned by the administration of MPTP at a concentration of 2.0 mg/kg (free-base) via subcutaneous injection to achieve a parkinsonian state. A post-MPTP lesioning behavioral assessment was carried out 2 to 4 weeks after the last MPTP-lesioning. Locomotor activity was monitored by IRAM in 60-minute sessions for 3 to 5 days. Clinical behavior (CAS) was assessed by one to three individuals rating over a period of 3 to 5 days.
Animals were tested for response to L-Dopa and the efficacy of drug nepicastat. Testing was carried out 4 to 12 weeks after the last MPTP dose. L-Dopa was administered at a concentration of either 2.5, 5, or 7.5 mg/kg by oral gavage twice daily (at 10 am and 2 pm) for 7 consecutive days. Behavior was determined by IRAM and CRS. Clinical rating was carried out 60 to 90 minutes following the 10 am morning dose on the last 4 days of treatment. Raters (one to three individuals) were blinded to the different treatment groups. IRAM assessment were preformed for 90 minutes immediately following drug administration at 2 pm on the last 2 to 5 days of drug treatment. There was a minimum 2 day washout period between each treatment dose.
Nepicastat or water (as placebo) was administered for 12 days following a minimum 2 day washout after L-Dopa dosing. Drug was administered twice daily at 10 am and 2 pm by oral gavage. Behavior was rated by IRAM and CRS. The CRS was conducted in the morning, 60 to 90 minutes after the 10 am dose of nepicastat on the last 5 days of drug treatment. Raters (one to three individuals) were blinded to the different treatment groups. IRAM assessments were preformed for 90 minutes immediately following drug administration at 2 pm on the last 5 days of drug treatment.
Eight parkinsonian features were rated in each animal and the total score was derived from the sum of these eight features. For each animal, a single clinical rating score was obtained for each drug dose by averaging the clinical rating scores of all raters (one to three) conducted over the consecutive multiple dosing (with the same dose) days. This average CRS was used for statistical analysis. A lower score was considered a less parkinsonian behavioral state.
Statistical analysis consisted of: (1) comparisons between the average CRS of placebo to nepicastat at 1, 4, and 10 mg/kg/day using the Kruskal-Wallis (non-parametric analysis of variance). This comparison was repeated using the average CRS for each experimental drug concentration corrected by the final post-MPTP ratings for each animal. The corrected clinical scores are clinical scores of experimental drug at each concentration as a ratio of post-MPTP clinical scores. […]

[10] = test system: brain dopamine/norepinephrine ratio; assay: Dopamine/norepinephrine ratios in the brain of rodents; details: in vivo
Procedure: Dopamine/norepinephrine ratios in the brain of rodents treated with nepicastat were determined. Dopamine/norepinephrine ratios increased in the brains of rodents treated with nepicastat or disulfuram.

Sequence of α2A adrenoceptors (P08913 whole entry): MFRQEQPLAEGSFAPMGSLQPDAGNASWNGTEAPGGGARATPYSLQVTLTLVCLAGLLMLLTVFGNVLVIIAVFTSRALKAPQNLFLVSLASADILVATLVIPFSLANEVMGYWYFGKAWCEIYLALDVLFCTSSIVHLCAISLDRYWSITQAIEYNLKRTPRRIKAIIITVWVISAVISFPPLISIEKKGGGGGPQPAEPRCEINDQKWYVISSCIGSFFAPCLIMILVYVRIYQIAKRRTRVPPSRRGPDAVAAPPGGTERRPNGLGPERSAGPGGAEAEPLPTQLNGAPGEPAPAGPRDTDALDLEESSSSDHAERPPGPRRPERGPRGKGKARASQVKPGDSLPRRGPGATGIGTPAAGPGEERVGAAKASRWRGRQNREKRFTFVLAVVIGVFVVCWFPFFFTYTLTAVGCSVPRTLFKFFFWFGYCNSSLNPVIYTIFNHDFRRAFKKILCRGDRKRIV
Sequence of α1B adrenoceptors (P35368 whole entry): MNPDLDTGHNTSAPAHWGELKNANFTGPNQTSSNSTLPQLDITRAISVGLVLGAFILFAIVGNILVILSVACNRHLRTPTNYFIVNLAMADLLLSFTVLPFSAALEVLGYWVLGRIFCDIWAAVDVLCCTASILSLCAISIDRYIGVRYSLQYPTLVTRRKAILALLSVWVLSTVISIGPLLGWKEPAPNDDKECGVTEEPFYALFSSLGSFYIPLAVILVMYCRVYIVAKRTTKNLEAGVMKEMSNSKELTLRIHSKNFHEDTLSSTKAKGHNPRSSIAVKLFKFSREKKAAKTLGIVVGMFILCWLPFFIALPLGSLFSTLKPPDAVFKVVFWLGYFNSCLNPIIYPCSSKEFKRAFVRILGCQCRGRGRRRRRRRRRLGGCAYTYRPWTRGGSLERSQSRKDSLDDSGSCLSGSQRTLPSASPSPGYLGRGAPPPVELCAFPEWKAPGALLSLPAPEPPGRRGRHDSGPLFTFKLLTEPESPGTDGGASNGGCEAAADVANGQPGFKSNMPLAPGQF
Sequence of β2 adrenoceptors (P07550 whole entry): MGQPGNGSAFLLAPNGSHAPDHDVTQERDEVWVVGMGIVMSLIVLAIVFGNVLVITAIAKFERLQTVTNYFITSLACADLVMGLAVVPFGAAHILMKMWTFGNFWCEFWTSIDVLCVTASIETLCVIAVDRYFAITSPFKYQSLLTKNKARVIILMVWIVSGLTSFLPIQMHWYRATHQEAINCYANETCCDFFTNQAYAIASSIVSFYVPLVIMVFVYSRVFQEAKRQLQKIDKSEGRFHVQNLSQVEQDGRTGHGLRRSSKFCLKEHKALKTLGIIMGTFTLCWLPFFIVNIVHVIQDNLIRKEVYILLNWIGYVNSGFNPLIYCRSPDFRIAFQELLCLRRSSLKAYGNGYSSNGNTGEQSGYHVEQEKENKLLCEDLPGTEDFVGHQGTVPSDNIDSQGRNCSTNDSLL
Sequence of α1A adrenoceptors (P35348 whole entry): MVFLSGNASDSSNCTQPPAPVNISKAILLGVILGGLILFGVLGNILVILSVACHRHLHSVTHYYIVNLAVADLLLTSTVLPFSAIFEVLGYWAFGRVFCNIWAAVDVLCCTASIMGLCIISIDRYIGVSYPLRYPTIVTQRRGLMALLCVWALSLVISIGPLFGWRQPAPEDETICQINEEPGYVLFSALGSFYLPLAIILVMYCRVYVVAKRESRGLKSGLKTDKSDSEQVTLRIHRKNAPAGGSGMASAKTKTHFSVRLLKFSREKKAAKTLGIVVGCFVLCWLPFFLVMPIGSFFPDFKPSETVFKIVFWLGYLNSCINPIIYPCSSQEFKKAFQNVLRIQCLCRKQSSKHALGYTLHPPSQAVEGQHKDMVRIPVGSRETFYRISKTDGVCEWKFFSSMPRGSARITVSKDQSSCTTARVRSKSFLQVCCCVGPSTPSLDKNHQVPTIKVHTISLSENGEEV
Sequence of α2B adrenoceptors (P18089 whole entry): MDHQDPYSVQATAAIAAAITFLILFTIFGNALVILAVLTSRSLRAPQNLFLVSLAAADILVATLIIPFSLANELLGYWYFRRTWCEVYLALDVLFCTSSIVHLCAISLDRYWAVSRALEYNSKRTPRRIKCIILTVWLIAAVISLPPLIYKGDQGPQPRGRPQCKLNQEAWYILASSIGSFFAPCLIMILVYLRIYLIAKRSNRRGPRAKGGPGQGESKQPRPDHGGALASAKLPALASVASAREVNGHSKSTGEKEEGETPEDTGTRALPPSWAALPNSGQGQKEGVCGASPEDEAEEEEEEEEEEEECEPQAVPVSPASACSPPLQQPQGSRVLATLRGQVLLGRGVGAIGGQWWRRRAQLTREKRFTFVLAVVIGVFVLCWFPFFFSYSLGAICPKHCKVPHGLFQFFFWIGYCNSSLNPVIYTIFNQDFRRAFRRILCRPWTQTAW
Sequence of μ opioid receptors (P35372 whole entry): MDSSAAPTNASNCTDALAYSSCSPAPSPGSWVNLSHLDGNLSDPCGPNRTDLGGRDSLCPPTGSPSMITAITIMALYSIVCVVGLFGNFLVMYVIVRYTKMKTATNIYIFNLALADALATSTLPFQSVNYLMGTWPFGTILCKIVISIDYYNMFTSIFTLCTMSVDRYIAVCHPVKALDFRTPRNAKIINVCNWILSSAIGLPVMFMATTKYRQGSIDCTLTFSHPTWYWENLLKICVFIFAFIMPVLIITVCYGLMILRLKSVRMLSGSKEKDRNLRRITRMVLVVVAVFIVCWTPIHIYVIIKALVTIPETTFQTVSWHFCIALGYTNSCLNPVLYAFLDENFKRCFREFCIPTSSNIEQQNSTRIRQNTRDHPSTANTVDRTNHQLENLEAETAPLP
Sequence of β1 adrenoceptors (P08588 whole entry): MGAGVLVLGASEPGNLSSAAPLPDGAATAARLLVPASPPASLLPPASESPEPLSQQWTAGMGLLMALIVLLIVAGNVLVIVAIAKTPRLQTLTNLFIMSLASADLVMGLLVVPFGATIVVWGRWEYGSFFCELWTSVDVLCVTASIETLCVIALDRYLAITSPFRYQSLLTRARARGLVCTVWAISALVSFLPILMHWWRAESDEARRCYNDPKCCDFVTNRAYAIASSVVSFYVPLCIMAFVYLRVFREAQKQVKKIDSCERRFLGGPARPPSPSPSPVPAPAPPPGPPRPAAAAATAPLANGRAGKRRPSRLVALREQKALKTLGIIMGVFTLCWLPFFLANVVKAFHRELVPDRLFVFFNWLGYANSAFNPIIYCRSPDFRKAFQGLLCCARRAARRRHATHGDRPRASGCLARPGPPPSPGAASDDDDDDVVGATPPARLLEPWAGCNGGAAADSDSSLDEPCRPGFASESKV

Cl.NCc1c[nH]c(=S)n1[C@H]1CCc2c(F)cc(F)cc2C1 [nepicastat, (S)-5-Aminomethyl-1-(5,7-difluoro-1,2,3,4-tetrahydronaphth-2-yl)-2,3-dihydro-2-thioxo-1H-imidazole hydrochloride]
Ki [1]: > 10 µM
Ki [2]: > 10 µM
Ki [3]: > 10 µM
Ki [4]: > 10 µM
Ki [5]: > 10 µM
Ki [6]: > 10 µM
Ki [7]: > 10 µM
cardiovascular effects [8]: no cardiovascular effects
activity monitoring (IRAM) vs placebo ([9]; 1 mg/kg/day): slower than placebo treatment
parkinsonian clinical rating vs placebo ([9]; 1, 4, 10 mg/kg/day, 12 days, hydrochloride): no detectable differences; also recorded: no significant effect in parkinsonian symptoms compared to placebo
activity monitoring (IRAM) vs placebo ([9]; 4 and 10 mg/kg/day): no difference
parkinsonian clinical rating vs post-MPTP (pre-treatment) state ([9]; nepicastat 4 and 10 mg/kg/day, hydrochloride): significant improvement over the post-MPTP (pre-treatment) state; also recorded: significant effect in parkinsonian symptoms compared to post-MPTP lesioning
dopamine/norepinephrine ratios in the brain [10]: increased
